Test systems include EKVX NSCLC; MDA-MB-231 breast; PC-3 prostate; HL-60(TB) leukemia; ACHN renal; SW-620 colon; SK-MEL-5 melanoma; DU-145 prostate; LOX IMVI melanoma; SF-539 CNS; HT29 colon; NCI-H460 lung; U251 CNS.
What all share (experiment): NCI-60 cell line screen, 48 h

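Grown in 96-well plates, cells were treated for 48 hours with each compound at five concentrations. Insufficient inhibition: endpoint recorded as highest concentration tested. The concentration for full growth arrest is given as TGI.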

As for `O=c1nc2c(c(-c3ccccc3Cl)[nH]1)COC/C2=C\c1ccccc1Cl`, the TGI in the experiment on EKVX NSCLC is 97.4 µM; with MDA-MB-231 breast, more than 100 µM; with PC-3 prostate, more than 100 µM; in the experiment with HL-60(TB) leukemia it was more than 100 µM; with ACHN renal, more than 100 µM; in the experiment with SW-620 colon, more than 100 µM. For the same compound, the TGI in the experiment with SK-MEL-5 melanoma, in the experiment with DU-145 prostate, in the experiment on LOX IMVI melanoma, in the experiment on SF-539 CNS, in the experiment with HT29 colon and with NCI-H460 lung was more than 100 µM each time. The same compound gave a TGI in the experiment on U251 CNS of more than 100 µM.

The values above are taken from PubChem BioAssay (NCI).
